Source: patent US20250367308A1, “LIGAND-DRUG CONJUGATE OF CAMPTOTHECIN ANALOGS, INTERMEDIATES, PREPARATION METHOD THEREFOR, PHARMACEUTICAL COMPOSITION AND APPLICATION THEREOF” (SHANGHAI MICURX PHARMACEUTICAL CO.,LTD., priority 2022, published 2025)

Test system: Human lung adenocarcinoma cell line A549
Assay: In vitro cytotoxicity test of camptothecin payloads (CellTiter-Glo)
Format: cell-based
Details: not given
Experimental: Human lung adenocarcinoma cell line A549 was used to evaluate the cytotoxicity of small molecule fragment of the present invention. A549 cells were seeded to a 96-well plate at 2000 cells per well.

For CC[C@@]1(O)C(=O)OCc2c1cc1n(c2=O)Cc2c-1nc1cc(F)c(C)cc1c2CN1CCCC(O)C1 (stereo partly drawn) [Example 17, (4S)-4-ethyl-8-fluoro-4-hydroxy-11-((3-hydroxypiperidin-1-yl)methyl)-9-methyl-1H-pyrano[3′,4′:6,7] indolizino[1,2-b]quinoline-3,14(4H,12H)-dione], the “relative A549 cytotoxic potency in words” value was “most potent compound”.

Same assay, conditions: Homo sapiens, A549, 72 h, read-out: A549 Cytotoxicity IC50 (nM)

Compared with CC[C@@]1(O)C(=O)OCc2c1cc1n(c2=O)Cc2c-1nc1cc(F)c(F)cc1c2CN1CCC([C@@H](C)O)CC1 [Example 37, (S)-4-ethyl-8,9-difluoro-4-hydroxy-11-((4-((R)-1-hydroxyethyl)piperidin-1-yl)methyl)-1,12-dihydro-14H-pyrano[3′,4′:6,7] indolizino[1,2-b]quinoline-3,14(4H)-dione], CC[C@@]1(O)C(=O)OCc2c1cc1n(c2=O)Cc2c-1nc1cc(F)c(C)cc1c2CN1CCC([C@@H](C)O)CC1 [Example 15, (S)-4-ethyl-8-fluoro-4-hydroxy-11-((4-((R)-1-hydroxyethyl)piperidin-1-yl)methyl)-9-methyl-1H-pyrano[3′,4′:6,7] indolizino[1,2-b]quinoline-3,14(4H,12H)-dione] is 1.6-fold lower in IC50: 29 nM for the first, 17.6 nM for the second. The second is the more potent here.

CC[C@@]1(O)C(=O)OCc2c1cc1n(c2=O)Cc2c-1nc1cc(F)c(C)cc1c2CN1CCC(C)(CO)C1 (stereo partly drawn) [Example 24, (4S)-4-ethyl-8-fluoro-4-hydroxy-11-((3-(hydroxymethyl)-3-methylpyrrolidin-1-yl)methyl)-9-methyl-1H-pyrano[3′,4′:6,7] indolizino[1,2-b]quinoline-3,14(4H,12H)-dione] and CC[C@@]1(O)C(=O)OCc2c1cc1n(c2=O)Cc2c-1nc1cc(F)c(C)cc1c2CN1CCCC1(C)CO (stereo partly drawn) [Example 21, (4S)-4-ethyl-8-fluoro-4-hydroxy-11-((2-(hydroxymethyl)-2-methylpyrrolidin-1-yl)methyl)-9-methyl-1H-pyrano[3′,4′:6,7] indolizino[1,2-b]quinoline-3,14(4H,12H)-dione] are within 1.5-fold of each other in IC50: 43 nM for the first, 55 nM for the second.

First: CC[C@@]1(O)C(=O)OCc2c1cc1n(c2=O)Cc2c-1nc1cc(F)c(C)cc1c2CN1C[C@H]2C[C@@H](C1)C2O (stereo partly drawn) [Example 47, (4S)-4-ethyl-8-fluoro-4-hydroxy-11-(((1R,5S)-6-hydroxy-3-azabicyclo[3.1.1]heptan-3-yl)methyl)-9-methyl-1,12-dihydro-14H-pyrano[3',4':6,7] indolizino[1,2-b]quinoline-3,14(4H)-dione]
Second: CC[C@@]1(O)C(=O)OCc2c1cc1n(c2=O)Cc2c-1nc1cc(F)c(C)cc1c2CN1C[C@H]2CC[C@@H](C1)C2O (stereo partly drawn) [Example 33, (4S)-4-ethyl-8-fluoro-4-hydroxy-11-(((1R,5S)-8-hydroxy-3-azabicyclo[3.2.1]octan-3-yl)methyl)-9-methyl-1H-pyrano[3′,4′:6,7] indolizino[1,2-b]quinoline-3,14(4H,12H)-dione]
The IC50 of the first is 2.2-fold higher: 28 nM for the first, 12.9 nM for the second. The second is the more potent here.

CC[C@@]1(O)C(=O)OCc2c1cc1n(c2=O)Cc2c-1nc1cc3c(cc1c2CN1CCC([C@@H](C)O)CC1)OCCO3 [Example 36] and CC[C@@]1(O)C(=O)OCc2c1cc1n(c2=O)Cc2c-1nc1cc(F)c(C)cc1c2CN1CCC(C(C)O)CC1 (stereo partly drawn) [Example 13, (4S)-4-ethyl-8-fluoro-4-hydroxy-11-((4-(1-hydroxyethyl)piperidin-1-yl)methyl)-9-methyl-1H-pyrano[3′,4′:6,7] indolizino[1,2-b]quinoline-3,14(4H,12H)-dione] are within 1.5-fold of each other in IC50: 38.4 nM for the first, 33 nM for the second.

Compared with CC[C@@]1(O)C(=O)OCc2c1cc1n(c2=O)Cc2c-1nc1cc(F)c(C)cc1c2CN1CCC(O)C1 (stereo partly drawn) [Example 2, (4S)-4-ethyl-8-fluoro-4-hydroxy-11-((3-hydroxypyrrolidin-1-yl)methyl)-9-methyl-1H-pyrano[3′,4′:6,7] indolizino[1,2-b]quinoline-3,14(4H,12H)-dione], CC[C@@]1(O)C(=O)OCc2c1cc1n(c2=O)Cc2c-1nc1cc(F)c(C)cc1c2CN1CCC[C@H](O)C1 [Example 19, (S)-4-ethyl-8-fluoro-4-hydroxy-11-(((S)-3-hydroxypiperidin-1-yl)methyl)-9-methyl-1H-pyrano[3′,4′:6,7] indolizino[1,2-b]quinoline-3,14(4H,12H)-dione] is 8.8-fold lower in IC50: 138 nM for the first, 15.7 nM for the second. The second is the more potent here.

First: CC[C@@]1(O)C(=O)OCc2c1cc1n(c2=O)Cc2c-1nc1cc(F)c(C)cc1c2CN1CC[C@@H](O)C1=O [Example 1, (S)-4-ethyl-8-fluoro-4-hydroxy-11-(((R)-3-hydroxy-2-oxopyrrolidin-1-yl)methyl)-9-methyl-1H-pyrano[3′,4′:6,7] indolizino[1,2-b]quinoline-3,14(4H,12H)-dione]
Second: CC[C@@]1(O)C(=O)OCc2c1cc1n(c2=O)Cc2c-1nc1cc(F)c(C)cc1c2CN1CCC[C@@H](O)C1 [Example 18, (S)-4-ethyl-8-fluoro-4-hydroxy-11-(((R)-3-hydroxypiperidin-1-yl)methyl)-9-methyl-1H-pyrano[3′,4′:6,7] indolizino[1,2-b]quinoline-3,14(4H,12H)-dione]
The IC50 of the first is 26-fold higher: 515 nM for the first, 19.7 nM for the second.

CC[C@@]1(O)C(=O)OCc2c1cc1n(c2=O)Cc2c-1nc1cc(F)c(C)cc1c2CN1CCC2(CC1)CC(O)C2 [Example 31, (S)-4-ethyl-8-fluoro-4-hydroxy-11-((2-hydroxy-7-azaspiro[3.5]nonan-7-yl)methyl)-9-methyl-1H-pyrano[3′,4′:6,7] indolizino[1,2-b]quinoline-3,14(4H,12H)-dione] and CC[C@@]1(O)C(=O)OCc2c1cc1n(c2=O)Cc2c-1nc1cc(F)c(C)cc1c2CN1CCC2(CCC2O)CC1 (stereo partly drawn) [Example 32, (4S)-4-ethyl-8-fluoro-4-hydroxy-11-((1-hydroxy-7-azaspiro[3.5]nonan-7-yl)methyl)-9-methyl-1H-pyrano[3′,4′:6,7] indolizino[1,2-b]quinoline-3,14(4H,12H)-dione] are within 1.5-fold of each other in IC50: 12.5 nM for the first, 12.6 nM for the second.

Compared with CC[C@@]1(O)C(=O)OCc2c1cc1n(c2=O)Cc2c-1nc1cc(F)c(C)cc1c2CN1CC(C)(C)C[C@@H]1CO [Example 22, (S)-4-ethyl-8-fluoro-4-hydroxy-11-(((R)-2-(hydroxymethyl)-4,4-dimethylpyrrolidin-1-yl)methyl)-9-methyl-1H-pyrano[3′,4′:6,7] indolizino[1,2-b]quinoline-3,14(4H,12H)-dione], CC[C@@]1(O)C(=O)OCc2c1cc1n(c2=O)Cc2c-1nc1cc(F)c(C)cc1c2CN1CCCC1CO (stereo partly drawn) [Example 5, (4S)-4-ethyl-8-fluoro-4-hydroxy-11-((2-(hydroxymethyl)pyrrolidin-1-yl)methyl)-9-methyl-1H-pyrano[3′,4′:6,7] indolizino[1,2-b]quinoline-3,14(4H,12H)-dione] is 4.5-fold higher in IC50: 14.3 nM for the first, 65 nM for the second.

Going from CC[C@@]1(O)C(=O)OCc2c1cc1n(c2=O)Cc2c-1nc1cc(F)c(C)cc1c2CN1CCCC(O)C1 (stereo partly drawn) [Example 17, (4S)-4-ethyl-8-fluoro-4-hydroxy-11-((3-hydroxypiperidin-1-yl)methyl)-9-methyl-1H-pyrano[3′,4′:6,7] indolizino[1,2-b]quinoline-3,14(4H,12H)-dione] to CC[C@@]1(O)C(=O)OCc2c1cc1n(c2=O)Cc2c-1nc1cc(F)c(C)cc1c2CN1CCC(CO)C1 (stereo partly drawn) [Example 8, (4S)-4-ethyl-8-fluoro-4-hydroxy-11-((3-(hydroxymethyl)pyrrolidin-1-yl)methyl)-9-methyl-1H-pyrano[3′,4′:6,7] indolizino[1,2-b]quinoline-3,14(4H,12H)-dione], the IC50 rises from 38 nM to 82 nM (2.2-fold). The first is the more potent here.

CC[C@@]1(O)C(=O)OCc2c1cc1n(c2=O)Cc2c-1nc1cc(F)c(C)c3c1c2[C@@H](NC(=O)CO)CC3 [Dxd, reference compound] and CC[C@@]1(O)C(=O)OCc2c1cc1n(c2=O)Cc2c-1nc1cc(F)c(C)cc1c2CN1CCC(CO)CC1 [Example 10, (S)-4-ethyl-8-fluoro-4-hydroxy-11-((4-(hydroxymethyl)piperidin-1-yl)methyl)-9-methyl-1H-pyrano[3′,4′:6,7] indolizino[1,2-b]quinoline-3,14(4H,12H)-dione] are within 1.5-fold of each other in IC50: 78 nM for the first, 67 nM for the second.

Going from CC[C@@]1(O)C(=O)OCc2c1cc1n(c2=O)Cc2c-1nc1cc(F)c(C)cc1c2CN1CCC(C2(O)CCC2)CC1 [Example 30, (S)-4-ethyl-8-fluoro-4-hydroxy-11-((4-(1-hydroxycyclobutyl)piperidin-1-yl)methyl)-9-methyl-1H-pyrano[3′,4′:6,7] indolizino[1,2-b]quinoline-3,14(4H,12H)-dione] to CC[C@@]1(O)C(=O)OCc2c1cc1n(c2=O)Cc2c-1nc1cc(F)c(C)cc1c2CN1CCC(CCO)CC1 [Example 27, (S)-4-ethyl-8-fluoro-4-hydroxy-11-((4-(2-hydroxyethyl)piperidin-1-yl)methyl)-9-methyl-1H-pyrano[3′,4′:6,7] indolizino[1,2-b]quinoline-3,14(4H,12H)-dione], the IC50 falls from 28.6 nM to 16.8 nM (1.7-fold). The second is the more potent here.

Going from CC[C@@]1(O)C(=O)OCc2c1cc1n(c2=O)Cc2c-1nc1cc(F)c(OC)cc1c2CN1CCC([C@@H](C)O)CC1 [Example 41, (S)-4-ethyl-8-fluoro-4-hydroxy-11-((4-((R)-1-hydroxyethyl)piperidin-1-yl)methyl)-9-methoxy-1,12-dihydro-14H-pyrano[3′,4′:6,7] indolizino[1,2-b]quinoline-3,14(4H)-dione] to CC[C@@]1(O)C(=O)OCc2c1cc1n(c2=O)Cc2c-1nc1cc(F)c(C)cc1c2C(C)N1CCC([C@@H](C)O)CC1 (stereo partly drawn) [Example 39, (4S)-4-ethyl-8-fluoro-4-hydroxy-11-(1-(4-((R)-1-hydroxyethyl)piperidin-1-yl)ethyl)-9-methyl-1,12-dihydro-14H-pyrano[3′,4′:6,7] indolizino[1,2-b]quinoline-3,14(4H)-dione], the IC50 rises from 31 nM to 128 nM (4.1-fold).

First: CC[C@@]1(O)C(=O)OCc2c1cc1n(c2=O)Cc2c-1nc1cc(F)c(C)cc1c2CN1C2CCC1(CO)CC2 [Example 20, (S)-4-ethyl-8-fluoro-4-hydroxy-11-((1-(hydroxymethyl)-7-azabicyclo[2.2.1]heptan-7-yl)methyl)-9-methyl-1H-pyrano[3′,4′:6,7] indolizino[1,2-b]quinoline-3,14(4H,12H)-dione]
Second: CC[C@@]1(O)C(=O)OCc2c1cc1n(c2=O)Cc2c-1nc1ccc(OCC(=O)N3CCCCC3)cc1c2CN1CCC([C@@H](C)O)CC1 [Example 40, (S)-4-ethyl-4-hydroxy-11-((4-((R)-1-hydroxyethyl)piperidin-1-yl)methyl)-9-(2-oxo-2-(piperidin-1-yl)ethoxy)-1,12-dihydro-14H-pyrano[3′,4′:6,7] indolizino[1,2-b]quinoline-3,14(4H)-dione]
The IC50 of the first is 54-fold lower: 24.1 nM for the first, 1290 nM for the second. The first is the more potent here.

Same assay, conditions: comparison between analogs of Table 1

In the case of CC[C@@]1(O)C(=O)OCc2c1cc1n(c2=O)Cc2c-1nc1cc(F)c(C)cc1c2CN1CC[C@@H](O)C1=O [Example 1, (S)-4-ethyl-8-fluoro-4-hydroxy-11-(((R)-3-hydroxy-2-oxopyrrolidin-1-yl)methyl)-9-methyl-1H-pyrano[3′,4′:6,7] indolizino[1,2-b]quinoline-3,14(4H,12H)-dione], the “relative A549 cytotoxic potency in words” value is reported as “much less potent”.

Same assay, conditions: human, 3 days

CC[C@@]1(O)C(=O)OCc2c1cc1n(c2=O)Cc2c-1nc1cc(F)c(C)cc1c2CN1CCC[C@H](O)C1 [Example 19, (S)-4-ethyl-8-fluoro-4-hydroxy-11-(((S)-3-hydroxypiperidin-1-yl)methyl)-9-methyl-1H-pyrano[3′,4′:6,7] indolizino[1,2-b]quinoline-3,14(4H,12H)-dione] was tested, and the “relative A549 cytotoxic potency in words” value was “more potent than Example 17”.
CC[C@@]1(O)C(=O)OCc2c1cc1n(c2=O)Cc2c-1nc1cc(F)c(C)cc1c2CN1CCC(CO)CC1 [Example 10, (S)-4-ethyl-8-fluoro-4-hydroxy-11-((4-(hydroxymethyl)piperidin-1-yl)methyl)-9-methyl-1H-pyrano[3′,4′:6,7] indolizino[1,2-b]quinoline-3,14(4H,12H)-dione] was tested, and the “relative A549 cytotoxic potency in words” value was “less potent than Example 17”.
